Experimental data: patent US20210024499A1, “OXIDIZED BIS(3-INDOLYL)METHANES AND USES THEREOF” (Sanford Burnam Prebys Medical Discovery Institute, priority 2018, published 2021)

Key:
MDA-MB-231 cells [1] = experiment: Flow cytometry-based Annexin V/PI apoptosis assay, MDA-MB-231; format: cell-based; settings: 1 μM, 6 hours
[2] = system: HEK293T cells transfected with Nur77-LBD; experiment: Apoptosis in HEK293T cells transfected with Nur77-LBD (confocal microscopy); format: cell-based
From the text: The ligand-binding domain (LBD) of Nur77, Nur77-LBD, was transfected into HEK293T cells. Transfection of Nur77-LBD enhanced the apoptotic effect of Compound 1, with 36% of the transfected HEK293T cells undergoing apoptosis, while 4.5% of the non-transfected cells were apoptotic, as measured by confocal microscopy.

HeLa cells = experiment: Mitochondrial membrane potential (JC1), HeLa; format: cell-based; settings: 6 h
Protocol: (§1) Loss of mitochondrial membrane potential (Avm) represents one of the hallmarks of apoptosis. A JC-1 probe was employed to measure mitochondrial depolarization in cancer cells. MDA-MB-231 breast cancer cells were treated with different concentration of test compounds for 6 hours. JC-1 staining solution (5 μg/ml) was added at 37° C. for 20 min. After washing with PBS twice, mitochondrial membrane potentials were monitored by determining the relative amounts of dual emission from a multiple fluorescence reader. The fluorescence in cells was quantitatively analyzed by flow cytometry. Mitochondrial depolarization is depicted by an increase in the green/red fluorescence intensity ratio. ROS were monitored with the oxiadtion-senstive fluorescent probe 2′7′-dichlorodihydroflurescenin diacetate (DCF-DA).
Furthermore, Nur77^−/−HeLa cells were more resistant than the parental HeLa cells to Compound 1 in its induction of the mitochondrial membrane potential loss measured by JC1 staining and in the release of mitochondrial ROS (as performed in Example A-12).
In addition, Bcl-2^−/−HeLa cells were more resistant than the parental HeLa cells to Compound 1 in its induction of the mitochondrial membrane potential loss measured by JC1 staining and in the release of mitochondrial ROS (as performed in Example A-12).

HCT116 cells = experiment: DAPI staining for apoptosis, HCT116; format: cell-based; settings: 0.5 μM, 6 hours, counted in 200 cells
Protocol: In HCT116 cells, about 80% apoptotic cells were detected when cells were treated with Compound 1 compared to less than 5% when cells were not treated with Compound 1. Apoptotic cells were counted in 200 cells.

[3] = system: Nur77 and pBind-RXRa-LBD-E453,6A; experiment: Mammalian one hybrid assay, RXRa-LBD/E453,6A mutant with Nur77; format: cell-based; settings: cells transfected with Nur77 and pBind-RXRa-LBD-E453,6A
Protocol: HEK293T cells were co-transfected with pG5 Luciferase reporter together with the plasmid encoding RXRa-LBD fused with the Gal4 DNA-binding domain and other expression plasmids. After transfection, cells were treated with DMSO or a test compound, and assayed by using the Dual-Luciferase Reporter Assay System (Promega). Transfection efficiency was normalized to Renilla luciferase activity.
To exclude the possibility that Compound 1 acted on RXRa, Glu453 and Glu456 in the RXRa activation function 2 (AF2) region were substituted with Ala and the resulting mutant, RXRa-LBD/E453,6A, was used.

MDA-MB-231 cells [4] = experiment: Caspase 3 cleavage assay (Western blotting); format: cell-based; settings: 6 hours, Western blotting (FIG. 2)
SW480 cells = experiment: PARP cleavage assay (Western blotting), SW480; format: cell-based; settings: 6 hours
From the text: Compound 1a had no effect under the same conditions (FIG. 1A). […] Compound 1a, 28a, 47a, 48a, 73a, 39a, 70a, 103a, 89a and 88a had no effect under the same conditions (FIG. 3B-C).

[5] = system: breast cancer cell lines (MDA-MB-231, BT549, HCC 1937, ZR-75-1, T47D, MCF-7); experiment: Cell viability (MTT) in various breast cancer cell lines; format: cell-based; settings: 24 hours, FIG. 1E; regardless of hormone dependency
Protocol: Cell viability was analyzed by using a colorimetric 3-(4,5-dimethylthiazol-[…]2-yl)-2,5-diphenyletetrazolium Bromide (MTT) assay that determines mitochondrial dehydrogenase activities in the living cells with a colorimetric method. Cells treated with test compounds were incubated with MTT and their effect on the viability of the cells was assayed by the ability of treated cells to reduce the yellow tetrazolium dye MTT to its insoluble formazan, which has a purple color.
Compound 1 was effective in various breast cancer cell lines analyzed regardless of its hormone dependency, including MDA-MB-231 cells, BT549 cells, HCC 1937 cells, ZR-75-1 cells, T47D cells, and MCF-7 cells (FIG. 1E).

PyMT mammary tumor = experiment: MMTV-PyMT mice breast cancer model; format: in vivo; settings: for growth of PyMT mammary tumor: 18 days
Protocol: Female MMTV-PyMT mice of 12 weeks old were randomly divided into two groups (n=7 each), treated with a daily oral dose of test compound for 18 days. Standard histopathological analysis of tumor tissue was performed (see Example A-19). Test compounds were dissolved in DMSO and diluted with normal saline containing 5.0% (V/V) Tween-80 to a final concentration 0.5 mg/ml. Normal saline with DMSO and 5.0% Tween-80 was employed as the vehicle control.
4 μm thick sections were deparaffinized and rehydrated using xylene and a graded series of ethanol (100, 95, 85, 75, 50%), followed by washing in PBS. Antigen retrieval was performed in 10 mM sodium citrate buffer (pH 6.0), which was microwaved at 100° C. for 20 minutes. After rinsed twice in PBS, sections were blocked at room temperature for 1 hour by using 10% normal goat serum, followed by incubation with anti-ki-67, anti-cleaved-caspase-3, overnight (at least 17 hours) at 4° C. Colors were developed with a DAB horseradish peroxidase color development kit.

[6] = system: MDA-MB-231 breast cancer cells; experiment: Mitochondrial membrane potential (JC-1), MDA-MB-231; format: cell-based; settings: MDA-MB-231 cells, 1 μM, 6 h
Protocol: as §1
In healthy cells with high Δψwm, JC-1 forms complexes with intense red fluorescence. However, in cells with low Δψm, JC-1 remains in the monomeric form with green fluorescence. Mitochondrial depolarization is depicted by an increase in the green/red fluorescence intensity ratio.

## FC(F)(F)c1ccc([C+](c2c[nH]c3ccccc23)c2c[nH]c3ccccc23)cc1 [Compound 1, Bis(1H-indol-3-yl)(4-(trifluoromethyl)phenyl)methylium methanesulfonate]
MDA-MB-231 cells [1]
  apoptotic cells (Annexin V/PI): about 31.63%
[2]
  cells undergoing apoptosis: 36%
HeLa cells; 0.5 μM
  JC1 green to red ratio (control 100%): 195%
HeLa cells; 1 μM
  JC1 green to red ratio (control 100%): 190%
HCT116 cells
  apoptotic cells (DAPI staining): about 80%
[3]
  reporter transcriptional activity: could still activate the reporter gene transcription
MDA-MB-231 cells [4]
  caspase 3 cleavage: dose dependent induction of caspase 3 cleavage
SW480 cells
  concentration inducing PARP cleavage (dose dependent study): submicromolar concentrations
[5]
  cell viability (MTT): effective
PyMT mammary tumor; 3 mg/kg
  expression levels of mTOR markers p-S6 and p-mTOR in tumor: markedly reduced
PyMT mammary tumor; 3 mg/kg daily oral
  growth of PyMT mammary tumor: inhibited the growth of PyMT mammary tumor
PyMT mammary tumor; 5 mg/kg daily oral
  growth of PyMT mammary tumor: inhibited the growth of PyMT mammary tumor
PyMT mammary tumor; 5 mg/kg, Western blotting
  expression levels of proliferation markers PCNA and Ki67 in tumor tissues: markedly reduced
PyMT mammary tumor; 5 mg/kg, immunostaining
  cleaved caspase 3 in tumor tissue specimens: enhanced expression of cleaved caspase 3
[6]
  JC-1 green to red ratio (control 100%): 345%
